Data taken from patent US20220389061A1, “IMMUNOMODULATORS” (priority 2019, published 2022).
Starred links: 1 amine or outer side, 2 acyl side, 3 side chain; linkers in the order of their positions; H or OH if unused. Positions of bridges follow the written chain, without caps; N, C: chain ends. Non-standard residues stand in square brackets, D forms with d. Residues, ends and D or L forms follow the SMILES beside them. Groups on a side chain read outwards from the residue. *: point of attachment. Trp(1-CH2COOH) = N[C@@H](Cc1cn(CC(=O)O)c2ccccc12)C(=O)O; NH(benzothiophen-5-yl) = c1cc2cc(N*)ccc2s1; X1 = S=C(Nc1ccc2c(c1)Cc1ccccc1-2)*; Hyp = O=C(O)[C@@H]1C[C@@H](O)CN1; X11 = S=C(Nc1ccccc1-c1ccccc1)*; X30 = FC(F)(F)c1ccc(N*)c(Cl)c1; NMeNle = CCCC[C@H](NC)C(=O)O; X4 = S=C(Nc1ccc2c(c1)OCCO2)*; X7 = S=C(Nc1ccc2cc[nH]c2c1)*; X54 = S=C(Nc1cccc2ncccc12)*; X59 = S=C(Nc1ccc2nsnc2c1)*; X64 = COc1cc(OC)c(N*)cc1Cl; NMeA = CN[C@@H](C)C(=O)O; Dab = NCC[C@H](N)C(=O)O; Dap = NC[C@H](N)C(=O)O; X77 = Clc1cccc(N*)c1Cl; CO = O=C([*:1])[*:2]

biological target: T1, PD-1/PD-L1 (Homo sapiens, UniProt Q9NZQ7); assay: PD-1/PD-L1 Homogenous Time-Resolved Fluorescence (HTRF) binding assay; conditions: not given
T1 construct: TVMV protease site linker (C); made in house; host or cells: HEK293T cells
T1 sequence (Q9NZQ7 18-239): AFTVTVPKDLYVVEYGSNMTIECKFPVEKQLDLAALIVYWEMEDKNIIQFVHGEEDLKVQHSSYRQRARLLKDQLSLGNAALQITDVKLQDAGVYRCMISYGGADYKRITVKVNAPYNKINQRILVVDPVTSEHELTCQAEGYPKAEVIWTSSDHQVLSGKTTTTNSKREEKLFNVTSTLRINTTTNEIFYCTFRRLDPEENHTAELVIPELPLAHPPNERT
In short: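 Compounds preincubated 15 min with PD-L1-His (10 nM final), then PD-1-Ig (20 nM final) added for 15 min in dPBS with 0.1% BSA, 0.05% Tween-20. Detection by Eu-cryptate anti-Ig (1 nM) and APC anti-His (20 nM) HTRF.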

| SMILES | IC50 |
| --- | --- |
| CCCC[C@H]1C(=O)N(C)[C@@H](CCCC)C(=O)N[C@@H](CC(C)C)C(=O)N[C@H](C(=O)NCC(N)=O)CSCC(=O)N[C@@H](Cc2ccc(O)cc2)C(=O)N(C)[C@@H](C)C(=O)N[C@@H](CC(N)=O)C(=O)N2CCC[C@H]2C(=O)N[C@@H](CNC(=O)Nc2cccc(Cl)c2Cl)C(=O)N[C@@H](CC(C)C)C(=O)N2C[C@H](O)C[C@H]2C(=O)N[C@@H](Cc2c[nH]c3ccccc23)C(=O)N[C@@H](CCN)C(=O)N[C@@H](Cc2cn(CC(=O)O)c3ccccc23)C(=O)N1C [Example 1071] ({CH2CO}-Y[NMeA]NP[Dap]([CO-X77])L[Hyp]W[Dab][Trp(1-CH2COOH)][NMeNle][NMeNle]LCG-NH2; thioether N-14) | 2.3 nM |

same assay, conditions: PD-L1-His 10 nM pre-incubated with inhibitor, PD-1-Ig 20 nM; read-out: HTRF IC50

| SMILES | IC50 |
| --- | --- |
| CCCC[C@H]1C(=O)N(C)[C@@H](CCCC)C(=O)N[C@@H](CC(C)C)C(=O)N[C@H](C(=O)NCC(N)=O)CSCC(=O)N[C@@H](Cc2ccc(O)cc2)C(=O)N(C)[C@@H](C)C(=O)N[C@@H](CC(N)=O)C(=O)N2CCC[C@H]2C(=O)N[C@@H](CNC(=O)Nc2ccc3sccc3c2)C(=O)N[C@@H](CC(C)C)C(=O)N2C[C@H](O)C[C@H]2C(=O)N[C@@H](Cc2c[nH]c3ccccc23)C(=O)N[C@@H](CCN)C(=O)N[C@@H](Cc2cn(CC(=O)O)c3ccccc23)C(=O)N1C [Example 3026] ({CH2CO}-Y[NMeA]NP[Dap]([CO-NH(benzothiophen-5-yl)])L[Hyp]W[Dab][Trp(1-CH2COOH)][NMeNle][NMeNle]LCG-NH2; thioether N-14) | 3.3 nM |
| CCCC[C@H]1C(=O)N(C)[C@@H](CCCC)C(=O)N[C@@H](CC(C)C)C(=O)N[C@H](C(=O)NCC(N)=O)CSCC(=O)N[C@@H](Cc2ccc(O)cc2)C(=O)N(C)[C@@H](C)C(=O)N[C@@H](CC(N)=O)C(=O)N2CCC[C@H]2C(=O)N[C@@H](CNC(=S)Nc2ccc3nsnc3c2)C(=O)N[C@@H](CC(C)C)C(=O)N2C[C@H](O)C[C@H]2C(=O)N[C@@H](Cc2c[nH]c3ccccc23)C(=O)N[C@@H](CCN)C(=O)N[C@@H](Cc2cn(CC(=O)O)c3ccccc23)C(=O)N1C [Example 3030] ({CH2CO}-Y[NMeA]NP[Dap](X59)L[Hyp]W[Dab][Trp(1-CH2COOH)][NMeNle][NMeNle]LCG-NH2; thioether N-14) | 3 nM |
| CCCC[C@H]1C(=O)N(C)[C@@H](CCCC)C(=O)N[C@@H](CC(C)C)C(=O)N[C@H](C(=O)NCC(N)=O)CSCC(=O)N[C@@H](Cc2ccc(O)cc2)C(=O)N(C)[C@@H](C)C(=O)N[C@@H](CC(N)=O)C(=O)N2CCC[C@H]2C(=O)N[C@@H](CNC(=S)Nc2cccc3ncccc23)C(=O)N[C@@H](CC(C)C)C(=O)N2C[C@H](O)C[C@H]2C(=O)N[C@@H](Cc2c[nH]c3ccccc23)C(=O)N[C@@H](CCN)C(=O)N[C@@H](Cc2cn(CC(=O)O)c3ccccc23)C(=O)N1C [Example 3018] ({CH2CO}-Y[NMeA]NP[Dap](X54)L[Hyp]W[Dab][Trp(1-CH2COOH)][NMeNle][NMeNle]LCG-NH2; thioether N-14) | 3.8 nM |
| CCCC[C@H]1C(=O)N(C)[C@@H](CCCC)C(=O)N[C@@H](CC(C)C)C(=O)N[C@H](C(=O)NCC(N)=O)CSCC(=O)N[C@@H](Cc2ccc(O)cc2)C(=O)N(C)[C@@H](C)C(=O)N[C@@H](CC(N)=O)C(=O)N2CCC[C@H]2C(=O)N[C@@H](CNC(=O)Nc2cc(Cl)c(OC)cc2OC)C(=O)N[C@@H](CC(C)C)C(=O)N2C[C@H](O)C[C@H]2C(=O)N[C@@H](Cc2c[nH]c3ccccc23)C(=O)N[C@@H](CCN)C(=O)N[C@@H](Cc2cn(CC(=O)O)c3ccccc23)C(=O)N1C [Example 1067] ({CH2CO}-Y[NMeA]NP[Dap]([CO-X64])L[Hyp]W[Dab][Trp(1-CH2COOH)][NMeNle][NMeNle]LCG-NH2; thioether N-14) | 2.7 nM |
| CCCC[C@H]1C(=O)N(C)[C@@H](CCCC)C(=O)N[C@@H](CC(C)C)C(=O)N[C@H](C(=O)NCC(N)=O)CSCC(=O)N[C@@H](Cc2ccc(O)cc2)C(=O)N(C)[C@@H](C)C(=O)N[C@@H](CC(N)=O)C(=O)N2CCC[C@H]2C(=O)N[C@@H](CNC(=O)Nc2ccc(C(F)(F)F)cc2Cl)C(=O)N[C@@H](CC(C)C)C(=O)N2C[C@H](O)C[C@H]2C(=O)N[C@@H](Cc2c[nH]c3ccccc23)C(=O)N[C@@H](CCN)C(=O)N[C@@H](Cc2cn(CC(=O)O)c3ccccc23)C(=O)N1C [Example 1105] ({CH2CO}-Y[NMeA]NP[Dap]([CO-X30])L[Hyp]W[Dab][Trp(1-CH2COOH)][NMeNle][NMeNle]LCG-NH2; thioether N-14) | 26 nM |
| CCCC[C@H]1C(=O)N(C)[C@@H](CCCC)C(=O)N[C@@H](CC(C)C)C(=O)N[C@H](C(=O)NCC(N)=O)CSCC(=O)N[C@@H](Cc2ccc(O)cc2)C(=O)N(C)[C@@H](C)C(=O)N[C@@H](CC(N)=O)C(=O)N2CCC[C@H]2C(=O)N[C@@H](CNC(=S)Nc2ccc3c(c2)OCCO3)C(=O)N[C@@H](CC(C)C)C(=O)N2C[C@H](O)C[C@H]2C(=O)N[C@@H](Cc2c[nH]c3ccccc23)C(=O)N[C@@H](CCNC(=S)Nc2ccc3c(c2)OCCO3)C(=O)N[C@@H](Cc2cn(CC(=O)O)c3ccccc23)C(=O)N1C [Example 3007] ({CH2CO}-Y[NMeA]NP[Dap](X4)L[Hyp]W[Dab](X4)[Trp(1-CH2COOH)][NMeNle][NMeNle]LCG-NH2; thioether N-14) | 2.6 nM |
| CCCC[C@H]1C(=O)N(C)[C@@H](CCCC)C(=O)N[C@@H](CC(C)C)C(=O)N[C@H](C(=O)NCC(N)=O)CSCC(=O)N[C@@H](Cc2ccc(O)cc2)C(=O)N(C)[C@@H](C)C(=O)N[C@@H](CC(N)=O)C(=O)N2CCC[C@H]2C(=O)N[C@@H](CNC(=S)Nc2ccccc2-c2ccccc2)C(=O)N[C@@H](CC(C)C)C(=O)N2C[C@H](O)C[C@H]2C(=O)N[C@@H](Cc2c[nH]c3ccccc23)C(=O)N[C@@H](CCNC(=S)Nc2ccccc2-c2ccccc2)C(=O)N[C@@H](Cc2cn(CC(=O)O)c3ccccc23)C(=O)N1C [Example 1128] ({CH2CO}-Y[NMeA]NP[Dap](X11)L[Hyp]W[Dab](X11)[Trp(1-CH2COOH)][NMeNle][NMeNle]LCG-NH2; thioether N-14) | 0.6 nM |
| CCCC[C@H]1C(=O)N(C)[C@@H](CCCC)C(=O)N[C@@H](CC(C)C)C(=O)N[C@H](C(=O)NCC(N)=O)CSCC(=O)N[C@@H](Cc2ccc(O)cc2)C(=O)N(C)[C@@H](C)C(=O)N[C@@H](CC(N)=O)C(=O)N2CCC[C@H]2C(=O)N[C@@H](CNC(=S)Nc2ccc3cc[nH]c3c2)C(=O)N[C@@H](CC(C)C)C(=O)N2C[C@H](O)C[C@H]2C(=O)N[C@@H](Cc2c[nH]c3ccccc23)C(=O)N[C@@H](CCN)C(=O)N[C@@H](Cc2cn(CC(=O)O)c3ccccc23)C(=O)N1C [Example 3049] ({CH2CO}-Y[NMeA]NP[Dap](X7)L[Hyp]W[Dab][Trp(1-CH2COOH)][NMeNle][NMeNle]LCG-NH2; thioether N-14) | 4.1 nM |
| CCCC[C@H]1C(=O)N(C)[C@@H](CCCC)C(=O)N[C@@H](CC(C)C)C(=O)N[C@H](C(=O)NCC(N)=O)CSCC(=O)N[C@@H](Cc2ccc(O)cc2)C(=O)N(C)[C@@H](C)C(=O)N[C@@H](CC(N)=O)C(=O)N2CCC[C@H]2C(=O)N[C@@H](CNC(=S)Nc2ccc3c(c2)Cc2ccccc2-3)C(=O)N[C@@H](CC(C)C)C(=O)N2C[C@H](O)C[C@H]2C(=O)N[C@@H](Cc2c[nH]c3ccccc23)C(=O)N[C@@H](CCN)C(=O)N[C@@H](Cc2cn(CC(=O)O)c3ccccc23)C(=O)N1C [Example 2010] ({CH2CO}-Y[NMeA]NP[Dap](X1)L[Hyp]W[Dab][Trp(1-CH2COOH)][NMeNle][NMeNle]LCG-NH2; thioether N-14) | 3.7 nM |
